Active and inactive are the calls of the source. The calls are words filed in the database; no cut-off is given here.
Key:
[1] = system: MKN-45; experiment: Antiproliferative activity against human MKN45 cells after 48 hrs by MTT assay; type: functional, cell-based; details: MKN-45, 48 h
[2] = system: MGC-803; experiment: Antiproliferative activity against human MGC803 cells after 48 hrs by MTT assay; type: functional, cell-based; details: MGC-803, 48 h
[3] = system: NCI-H1650; experiment: Antiproliferative activity against human NCI-H1650 cells after 48 hrs by MTT assay; type: functional, cell-based; details: NCI-H1650, 48 h
[4] = system: A549; experiment: Antiproliferative activity against human A549 cells after 48 hrs by MTT assay; type: functional, cell-based; details: A549, 48 h
[5] = system: ECa-109 cell line; experiment: Antiproliferative activity against human EC109 cells after 48 hrs by MTT assay; type: functional, cell-based; details: ECa-109, 48 h
[6] = system: GES1; experiment: Antiproliferative activity against human GES-1 cells after 48 hrs by MTT assay; type: cell-based; details: GES1, 48 h
[7] = Selectivity index, ratio of IC50 for human GES-1 cells to IC50 for human NCI-H1650 cells; type: toxicity; details: GES-1 cells versus NCI-H1650 cells, read-out: Ratio IC50
[8] = system: NCI-H1650; experiment: Anticlonogenic activity against human NCI-H1650 cells assessed as inhibition of colony formation at 10 uM after 9 days by crystal violet staining-based assay relative to control; type: functional; details: NCI-H1650, 216 h
[9] = system: NCI-H1650; experiment: Anticlonogenic activity against human NCI-H1650 cells assessed as inhibition of colony formation after 9 days by crystal violet staining-based assay; type: functional, cell-based
[10] = system: NCI-H1650; experiment: Induction of apoptosis in human NCI-H1650 cells assessed as early apoptotic cells at 2 uM after 24 hrs by Annexin-V-FITC/propidium iodide staining based flow cytometry (reference value: 5.58%); type: functional
[11] = system: NCI-H1650; experiment: Induction of apoptosis in human NCI-H1650 cells assessed as late apoptotic cells at 2 uM after 24 hrs by Annexin-V-FITC/propidium iodide staining based flow cytometry (reference value: 7.64%); type: functional
[12] = system: NCI-H1650; experiment: Induction of apoptosis in human NCI-H1650 cells assessed as necrotic cells at 2 uM after 24 hrs by Annexin-V-FITC/propidium iodide staining based flow cytometry (reference value: 3.22%); type: functional
[13] = system: NCI-H1650; experiment: Induction of apoptosis in human NCI-H1650 cells assessed as viable cells at 2 uM after 24 hrs by Annexin-V-FITC/propidium iodide staining based flow cytometry (reference value: 83.6%); type: functional; details: NCI-H1650, 24 h, read-out: Activity
[14] = system: NCI-H1650; experiment: Induction of apoptosis in human NCI-H1650 cells assessed as early apoptotic cells at 4 uM after 24 hrs by Annexin-V-FITC/propidium iodide staining based flow cytometry (reference value: 5.58%); type: functional
[15] = system: NCI-H1650; experiment: Induction of apoptosis in human NCI-H1650 cells assessed as late apoptotic cells at 4 uM after 24 hrs by Annexin-V-FITC/propidium iodide staining based flow cytometry (reference value: 7.64%); type: functional
[16] = system: NCI-H1650; experiment: Induction of apoptosis in human NCI-H1650 cells assessed as necrotic cells at 4 uM after 24 hrs by Annexin-V-FITC/propidium iodide staining based flow cytometry (reference value: 3.22%); type: functional
[17] = system: NCI-H1650; experiment: Induction of apoptosis in human NCI-H1650 cells assessed as viable cells at 4 uM after 24 hrs by Annexin-V-FITC/propidium iodide staining based flow cytometry (reference value: 83.6%); type: functional; details: NCI-H1650, 24 h, read-out: Activity
[18] = system: NCI-H1650; experiment: Induction of apoptosis in human NCI-H1650 cells assessed as increase in early apoptotic cells after 24 hrs by Annexin-V-FITC/propidium iodide staining based flow cytometry; type: functional, cell-based
[19] = system: NCI-H1650; experiment: Induction of apoptosis in human NCI-H1650 cells assessed as increase in Bax expression measured after 24 hrs by Western blot analysis; type: functional, cell-based
[20] = system: NCI-H1650; experiment: Induction of apoptosis in human NCI-H1650 cells assessed as reduction in Bcl-2 expression up to 8 uM after 24 hrs by Western blot analysis; type: functional, cell-based
[21] = system: NCI-H1650; experiment: Induction of apoptosis in human NCI-H1650 cells assessed as increase in cleaved caspase-3 level up to 8 uM after 24 hrs by Western blot analysis; type: functional, cell-based
[22] = system: NCI-H1650; experiment: Induction of apoptosis in human NCI-H1650 cells assessed as increase in cleaved caspase-9 level up to 8 uM after 24 hrs by Western blot analysis; type: functional, cell-based
[23] = system: NCI-H1650; experiment: Cell cycle arrest in human NCI-H1650 cells assessed as accumulation at G1 phase at 2 uM after 24 hrs by propidium iodide staining-based flow cytometry (reference value: 55.7%); type: functional
[24] = system: NCI-H1650; experiment: Cell cycle arrest in human NCI-H1650 cells assessed as accumulation at G2/M phase at 2 uM after 24 hrs by propidium iodide staining-based flow cytometry (reference value: 12.4%); type: functional
[25] = system: NCI-H1650; experiment: Cell cycle arrest in human NCI-H1650 cells assessed as accumulation at S phase at 2 uM after 24 hrs by propidium iodide staining-based flow cytometry (reference value: 36.2%); type: functional
[26] = system: NCI-H1650; experiment: Cell cycle arrest in human NCI-H1650 cells assessed as accumulation at S phase at 4 uM after 24 hrs by propidium iodide staining-based flow cytometry (reference value: 36.2%); type: functional
[27] = system: NCI-H1650; experiment: Cell cycle arrest in human NCI-H1650 cells assessed as accumulation at G1 phase at 4 uM after 24 hrs by propidium iodide staining-based flow cytometry (reference value: 55.7%); type: functional
[28] = system: NCI-H1650; experiment: Cell cycle arrest in human NCI-H1650 cells assessed as accumulation at G2/M phase at 4 uM after 24 hrs by propidium iodide staining-based flow cytometry (reference value: 12.4%); type: functional
[29] = system: NCI-H1650; experiment: Cell cycle arrest in human NCI-H1650 cells assessed as accumulation at G1 phase at 8 uM after 24 hrs by propidium iodide staining-based flow cytometry (reference value: 55.7%); type: functional
[30] = system: NCI-H1650; experiment: Cell cycle arrest in human NCI-H1650 cells assessed as accumulation at G2/M phase at 8 uM after 24 hrs by propidium iodide staining-based flow cytometry (reference value: 12.4%); type: functional
[31] = system: NCI-H1650; experiment: Cell cycle arrest in human NCI-H1650 cells assessed as accumulation at S phase at 8 uM after 24 hrs by propidium iodide staining-based flow cytometry (reference value: 36.2%); type: functional
[32] = system: NCI-H1650; experiment: Cell cycle arrest in human NCI-H1650 cells assessed as accumulation at G2/M phase after 24 hrs by propidium iodide staining-based flow cytometry; type: functional

## CCCSc1nc(NCCNC(=S)Nc2ccc(C)cc2)c2nnn(CCc3ccccc3)c2n1
[1]
  IC50: 50.6 µM
[2]
  IC50: 35.2 µM
[3]
  IC50: 58.8 µM
[4]
  IC50: 42.4 µM
[5]
  IC50: 28.4 µM
[6]
  IC50: 43 µM

## CCCSc1nc(NCCNC(=S)Nc2cccnc2)c2nnn(CCO)c2n1
[1]
  IC50: 25 µM
[2]
  IC50: > 64 µM
[3]
  IC50: 45.9 µM
[4]
  IC50: > 64 µM
[5]
  IC50: 18.2 µM
[6]
  IC50: > 64 µM

## CCCSc1nc(NCCNC(=S)NCc2ccccc2)c2nnn(CCc3ccccc3)c2n1
[1]
  IC50: 22.9 µM
[2]
  IC50: 17.4 µM
[3]
  IC50: > 64 µM
[4]
  IC50: > 64 µM
[5]
  IC50: 13.8 µM
[6]
  IC50: 51.3 µM

## CCCSc1nc(NCCNC(=S)Nc2cccc3ccccc23)c2nnn(CCc3ccccc3)c2n1
[1]
  IC50: 9.73 µM
[2]
  IC50: > 64 µM
[3]
  IC50: 6.51 µM
[4]
  IC50: 40.9 µM
[5]
  IC50: > 64 µM
[6]
  IC50: > 64 µM

## CCCSc1nc(NCCNC(=S)Nc2ccc(Br)cc2)c2nnn(CCc3ccccc3)c2n1
[1]
  IC50: 40 µM
[2]
  IC50: 38.1 µM
[3]
  IC50: 51.1 µM
[4]
  IC50: 32.5 µM
[5]
  IC50: 23.1 µM
[6]
  IC50: > 64 µM

## CCCSc1nc(NCCNC(=S)Nc2ccccc2Cl)c2nnn(CCc3ccccc3)c2n1
[1]
  IC50: > 64 µM
[2]
  IC50: > 64 µM
[3]
  IC50: 18.2 µM
[4]
  IC50: > 64 µM
[5]
  IC50: > 64 µM
[6]
  IC50: > 64 µM

## CCCSc1nc(NCCNC(=S)Nc2cccnc2)c2nnn(Cc3ccccc3)c2n1
[1]
  IC50: 15.1 µM
[2]
  IC50: 24 µM
[3]
  IC50: 9.56 µM
[4]
  IC50: 12 µM
[5]
  IC50: 10.8 µM
[6]
  IC50: 21.9 µM

## CCCSc1nc(NCCNC(=S)Nc2cccc(Cl)c2)c2nnn(CCc3ccccc3)c2n1
[1]
  IC50: 30.1 µM
[2]
  IC50: 27 µM
[3]
  IC50: 17 µM
[4]
  IC50: 15.8 µM
[5]
  IC50: 11.8 µM
[6]
  IC50: 60.4 µM

## CCCCc1ccc(NC(=S)NCCNc2nc(SCCC)nc3c2nnn3CCc2ccccc2)cc1
[1]
  IC50: > 64 µM
[2]
  IC50: 31.2 µM
[3]
  IC50: 40.9 µM
[4]
  IC50: > 64 µM
[5]
  IC50: 18.9 µM
[6]
  IC50: > 64 µM

## CCCSc1nc(NCCNC(=S)Nc2cccnc2)c2nnn(CCc3ccccc3)c2n1
[1]
  IC50: 6.58 µM
[2]
  IC50: 16.4 µM
[3]
  IC50: 2.38 µM
[4]
  IC50: 8.23 µM
[5]
  IC50: 4.99 µM
[6]
  IC50: 30.3 µM

## CCCSc1nc(NCCNC(=S)Nc2cccc(C(F)(F)F)c2)c2nnn(CCc3ccccc3)c2n1
[1]
  IC50: 35.6 µM
[2]
  IC50: 33.9 µM
[3]
  IC50: 24.2 µM
[4]
  IC50: 17.2 µM
[5]
  IC50: 17.8 µM
[6]
  IC50: 23.2 µM

## CCCSc1nc(NCCNC(=S)Nc2ccccn2)c2nnn(CCc3ccccc3)c2n1
[1]
  IC50: 8.09 µM
[2]
  IC50: 11.6 µM
[3]
  IC50: 7.62 µM
[4]
  IC50: 5.91 µM
[5]
  IC50: 5.41 µM
[6]
  IC50: 23.1 µM

## CCCSc1nc(NCCNC(=S)Nc2cccnc2)c2nnn(CCc3c[nH]c4ccccc34)c2n1
[1]
  IC50: 3.22 µM
[2]
  IC50: 9.21 µM
[3]
  IC50: 1.91 µM
[4]
  IC50: 3.28 µM
[5]
  IC50: 8.12 µM
[6]
  IC50: 27.4 µM
[7]
  selectivity ratio: 14.4
[8]
  inhibition at 10 µM: ≤ 68%
[9]
  inhibition: Dose-dependent effect
[10]
  Activity: 35.5%
[11]
  Activity: 12.3%
[12]
  Activity: 1.14%
[13]
  viability at 2 µM: 51.1%
[14]
  Activity: 36.7%
[15]
  Activity: 15.1%
[16]
  Activity: 1.38%
[17]
  viability at 4 µM: 46.8%
[18]
  Activity: Dose-dependent effect
[19]
  Activity: Dose-dependent effect
[20]
  Activity: Active
[21]
  Activity: Active
[22]
  Activity: Active
[23]
  Activity: 30.6%
[24]
  Activity: 23.2%
[25]
  Activity: 35.1%
[26]
  Activity: 21.9%
[27]
  Activity: 27.2%
[28]
  Activity: 34.7%
[29]
  Activity: 20.8%
[30]
  Activity: 45.6%
[31]
  Activity: 38.4%
[32]
  Activity: Dose-dependent effect

## CCCSc1nc(NCCNC(=S)Nc2ccc(Cl)cc2)c2nnn(CCc3ccccc3)c2n1
[1]
  IC50: 37.6 µM
[2]
  IC50: 27.2 µM
[3]
  IC50: 13.2 µM
[4]
  IC50: 23.2 µM
[5]
  IC50: 10.6 µM
[6]
  IC50: 41.2 µM

## O=c1[nH]cc(F)c(=O)[nH]1 [FLUOROURACIL]
[6]
  IC50: 9.02 µM

## CCCSc1nc(NCCNC(=S)Nc2cccnc2)c2nnn(CC(C)C)c2n1
[1]
  IC50: 19.2 µM
[2]
  IC50: 25.2 µM
[3]
  IC50: 15.3 µM
[4]
  IC50: 10.6 µM
[5]
  IC50: > 64 µM
[6]
  IC50: 48.2 µM

## CCCSc1nc(NCCNC(=S)Nc2ccc([N+](=O)[O-])cc2)c2nnn(CCc3ccccc3)c2n1
[1]
  IC50: 48.2 µM
[2]
  IC50: > 64 µM
[3]
  IC50: 26.1 µM
[4]
  IC50: 39.1 µM
[5]
  IC50: 58.1 µM
[6]
  IC50: 35.2 µM

## CCCSc1nc(NCCNC(=S)Nc2ccccc2)c2nnn(CCc3ccccc3)c2n1
[1]
  IC50: > 64 µM
[2]
  IC50: > 64 µM
[3]
  IC50: 49.5 µM
[4]
  IC50: > 64 µM
[5]
  IC50: 37.2 µM
[6]
  IC50: 53.1 µM

## CCCSc1nc(NCCNC(=S)Nc2cccnc2)c2nnn(C3CCCC3)c2n1
[1]
  IC50: 13.5 µM
[2]
  IC50: 19.2 µM
[3]
  IC50: 8.99 µM
[4]
  IC50: 15.1 µM
[5]
  IC50: 12.6 µM
[6]
  IC50: 32.9 µM
